# Experimental data published in patent US20200338125A1, “METHOD FOR EXPANSION OF LYMPHOCYTES” (LUDWIG INSTITUTE FOR CANCER RESEARCH LTD, priority 2017, published 2020).
# System: TILs of patient CTE-0009
# Assay: IFNγ-ELISPOT of TILs from draining lymph nodes, patient CTE-0009
# Format: cell-based, human
# Conditions: FIG. 5; day 14; conventional and primed cultures from draining lymph nodes
# Method: Both “conventional” and “primed” TILs of patient CTE-0009 were generated from a single cell suspension of draining lymph nodes, following the methods described herein. Each culture was interrogated at day 14 by IFNγ-ELISPOT for the presence of neo-antigen T cell reactivities directed against one of the 4 predicted peptides and against the corresponding wild-type (wt) peptides. […] PHA was used at 1 μg/ml.
# T cell reactivity against predicted neo-antigens was tested by IFNγ ELISpot on pre-REP TILs. Positivity was confirmed in ≥2 independent experiments.
sequence,measurement,value
TPINPRRCL [wt],neo-antigen T cell reactivities directed against the peptide,not
